Results on ten compounds are retold here after patent US20240294499A1, “TARGETED PROTEIN DEGRADATION USING BIFUNCTIONAL COMPOUNDS THAT BIND UBIQUITIN LIGASE AND TARGET MCL-1 PROTEIN” (Captor Therapeutics S.A., priority 2021, published 2024).

One assay deals with DMS 114 cells. Description: Cell viability assay (CellTiter-Glo), DMS 114. The assay is classed as cell-based. The settings on record: 72 hours incubation, 10% FBS; for IC50: Homo sapiens, DMS-114, 72 h, read-out: Average pIC50 by molecule DMS 114 (converted). From the text: The effect of various compounds of the invention on the viability of DMS 114 cell line was investigated, using the CTG protocol described below.
DMS 114 cell line is derived from small-cell lung cancer, which is described in the literature as MCL-1 dependent lines [Yasuda Y et al. Cell Death & Disease 2020; 11: 177].
DMS 114 cells were detached with trypsin and then resuspended in growth medium containing 10% FBS and counted. Cell suspension was then adjusted to 5×10^4 cells/ml using growth medium containing 10% FBS. Afterwards, […] were seeded on 384-well plates (50 μl). Plates were then placed in the incubator overnight until treated. Next day, compounds were added using ECHO 555 liquid handler. Compound concentrations used in this assay: 1/3 dilutions starting at 30 uM (9 to 12 points).
After 72 hours of incubation, cell viability was evaluated using CellTiter-Glo Luminescent Cell Viability Assay (Promega, cat #G7572). Luminescence signal was measured using a CLARIOstar Plus Multi-Mode Microplate Reader (574-590 nm).
On the technique in general: ATP-based viability assays read luminescence as a measure of living cells.

The next assay deals with ARH-77 cells. The assay is described as follows: Cell viability assay (CellTiter-Glo), ARH-77. Type of assay: cell-based. The settings on record: 1% FBS; for IC50: Homo sapiens, ARH-77, 24 hours incubation, read-out: Average pIC50 by molecule ARH-77 (converted). The procedure, abridged: (§1)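 Luminescent ATP readout (CellTiter-Glo) at 24 hours measured viability, expressed relative to DMSO-treated wells. Compound was added directly to the medium as a 9–12-point threefold series starting at 30 uM, at 0.5% final DMSO. The medium contained FBS reduced to 1%.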

The next assay relates to MV-4-11 cells. The assay is described as follows: Cell viability assay (CellTiter-Glo), MV-4-11. Type of assay: cell-based. Conditions: 1% FBS; for IC50: Homo sapiens, MV4-11, 24 hours incubation, read-out: Average pIC50 by molecule MV-4-11 (converted). The method in brief:
as §1

In assay [1] the target is T1, [MCL-1]-[compound of formula (I)]-[CRBN/DDB1] complex (Homo sapiens, UniProt Q07820+Q96SW2). The assay is described as follows: HTRF ternary complex assay. Type of assay: binding. The settings on record: ternary complex formation; read-out: HTRF ternary complex Average pEC50 by molecule (converted). The method in brief:
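hMcl-1 and CRBN (mix at 48 nM and 105.6 nM) with Streptavidin-Eu cryptate and anti-6×His-d2 in PPI Europium buffer with 2 mM DTT; compounds in dose-response, 0.5% DMSO. Incubated 180 min at 25° C, TR-FRET 665/620 read. Bell-shaped curve fitted by Gaussian; EC50 reported.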

For assay [2], the target named is T1, [MCL-1]-[compound of formula (I)]-[CRBN/DDB1] complex. Description: AlphaLISA dose response ternary complex formation assay. The settings on record: for EC50: read-out: AlphaLISA dose response Average pEC50 by molecule (converted). Type of assay: binding. The method in brief:
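EC50 comes from dose–response of AlphaLISA luminescence (excitation 680, emission 615 nm), normalised between DMSO background and an internal positive control, with concentrations past the hook point dropped. Ternary complex formed by mixing bead-bound biotin-hMCL-1 and His-CRBN/DDB1 (protein solutions 40 and 200 nM) with compound in 2% DMSO, 30 min, 25 °C.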

T1 sequence (Q07820 whole entry): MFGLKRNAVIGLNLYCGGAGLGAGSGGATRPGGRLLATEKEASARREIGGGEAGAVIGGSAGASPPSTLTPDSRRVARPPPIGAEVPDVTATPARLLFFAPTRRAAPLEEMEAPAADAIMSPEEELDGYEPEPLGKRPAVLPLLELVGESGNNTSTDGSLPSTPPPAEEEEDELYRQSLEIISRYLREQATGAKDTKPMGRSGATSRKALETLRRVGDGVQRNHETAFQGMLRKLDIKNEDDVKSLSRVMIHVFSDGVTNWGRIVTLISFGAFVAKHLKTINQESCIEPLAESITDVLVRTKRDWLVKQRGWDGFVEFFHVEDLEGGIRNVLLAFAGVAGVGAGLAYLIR
T1 sequence (Q96SW2 whole entry): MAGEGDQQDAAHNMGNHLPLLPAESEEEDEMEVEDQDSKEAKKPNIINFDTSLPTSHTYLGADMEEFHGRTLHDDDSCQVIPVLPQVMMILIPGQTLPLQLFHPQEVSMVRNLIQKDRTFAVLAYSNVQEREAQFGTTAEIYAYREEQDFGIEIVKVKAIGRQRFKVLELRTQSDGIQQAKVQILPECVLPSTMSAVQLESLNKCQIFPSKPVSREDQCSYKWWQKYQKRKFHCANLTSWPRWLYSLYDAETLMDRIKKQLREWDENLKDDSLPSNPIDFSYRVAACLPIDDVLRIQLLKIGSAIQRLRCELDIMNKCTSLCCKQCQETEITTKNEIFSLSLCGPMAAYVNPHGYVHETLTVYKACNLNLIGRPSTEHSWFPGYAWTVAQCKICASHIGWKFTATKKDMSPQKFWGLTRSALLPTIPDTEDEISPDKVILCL
T1 sequence (Q16531 whole entry partner): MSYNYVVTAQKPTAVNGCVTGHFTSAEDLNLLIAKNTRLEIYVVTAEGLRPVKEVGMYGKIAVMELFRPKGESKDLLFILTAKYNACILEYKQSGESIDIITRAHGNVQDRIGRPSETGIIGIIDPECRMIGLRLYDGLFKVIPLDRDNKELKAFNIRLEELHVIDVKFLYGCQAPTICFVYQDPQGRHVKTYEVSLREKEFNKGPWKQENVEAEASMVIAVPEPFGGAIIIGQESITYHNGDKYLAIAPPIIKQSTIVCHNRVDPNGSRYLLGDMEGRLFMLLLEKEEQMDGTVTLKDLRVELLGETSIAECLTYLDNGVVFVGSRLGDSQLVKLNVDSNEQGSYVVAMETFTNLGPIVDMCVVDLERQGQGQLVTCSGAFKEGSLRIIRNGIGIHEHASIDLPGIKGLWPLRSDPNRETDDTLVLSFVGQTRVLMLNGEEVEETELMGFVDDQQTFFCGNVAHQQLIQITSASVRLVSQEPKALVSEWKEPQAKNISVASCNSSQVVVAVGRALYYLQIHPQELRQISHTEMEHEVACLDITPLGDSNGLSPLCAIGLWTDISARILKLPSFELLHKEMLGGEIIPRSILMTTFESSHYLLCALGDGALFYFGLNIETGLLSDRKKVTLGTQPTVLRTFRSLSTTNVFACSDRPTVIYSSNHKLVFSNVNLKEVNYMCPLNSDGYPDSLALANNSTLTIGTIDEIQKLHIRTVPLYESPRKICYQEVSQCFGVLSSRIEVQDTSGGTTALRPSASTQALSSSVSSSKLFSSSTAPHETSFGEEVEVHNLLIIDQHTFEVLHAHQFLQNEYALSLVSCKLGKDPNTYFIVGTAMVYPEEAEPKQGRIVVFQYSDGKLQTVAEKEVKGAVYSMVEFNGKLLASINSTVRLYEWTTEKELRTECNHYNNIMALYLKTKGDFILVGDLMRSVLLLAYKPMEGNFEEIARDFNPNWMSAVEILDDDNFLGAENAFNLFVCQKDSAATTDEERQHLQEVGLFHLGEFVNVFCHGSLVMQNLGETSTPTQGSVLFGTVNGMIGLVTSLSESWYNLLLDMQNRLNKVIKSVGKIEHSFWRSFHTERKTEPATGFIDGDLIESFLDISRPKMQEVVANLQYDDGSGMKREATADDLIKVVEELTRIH

Take `COCc1c(-c2c(Cl)ccc3c(CCCOc4cccc5cc(F)ccc45)c(C(=O)O)n(CCN4CCN(C(=O)COc5cccc6c5CN(C5CCC(=O)NC5=O)C6=O)CC4)c23)c(C)nn1C` (centres unmarked) [Compound 349, 6-Chloro-1-(2-(4-(2-((2-(2,6-dioxopiperidin-3-yl)-1-oxoisoindolin-4-yl)oxy)acetyl)piperazin-1-yl)ethyl)-3-(3-((6-fluoronaphthalen-1-yl)oxy)propyl)-7-(5-(methoxymethyl)-1,3-dimethyl-1H-pyrazol-4-yl)-1H-indole-2-carboxylic acid]: the IC50 was not above 1 µM in the assay on DMS 114 cells, more than 10 µM in the assay with ARH-77 cells and not above 0.0316 µM in the assay on MV-4-11 cells. Besides, in assay [1], the EC50 is less than 0.1 µM.
Regarding `Cc1nn(C)c(C)c1-c1c(Cl)ccc2c(CCCOc3cccc4cc(F)ccc34)c(C(=O)O)n(CCN3CCN(C(=O)Cn4c(C)nc5c(C(=O)NC6CCC(=O)NC6=O)ccc(Br)c54)CC3)c12` (centres unmarked) [Compound 269, 1-(2-(4-(2-(7-Bromo-4-((2,6-dioxopiperidin-3-yl)carbamoyl)-2-methyl-1H-benzo[d]imidazol-1-yl)acetyl)piperazin-1-yl)ethyl)-6-chloro-3-(3-((6-fluoronaphthalen-1-yl)oxy)propyl)-7-(1,3,5-trimethyl-1H-pyrazol-4-yl)-1H-indole-2-carboxylic acid], the figures for the EC50 in assay [2] and in assay [1] were less than 0.1 µM and less than 0.01 µM, respectively. The IC50 was not above 3.16 µM in the assay with DMS 114 cells, more than 10 µM in the assay on ARH-77 cells and not above 0.1 µM with MV-4-11 cells.
On to `Cc1nn(C)c(C)c1-c1c(Cl)ccc2c(CCCOc3cccc4cc(F)ccc34)c(C(=O)O)n(CCN3CCN(C(=O)Cn4c(C)nc5c(C(=O)NC6CCC(=O)NC6=O)cc(N)cc54)CC3)c12` (centres unmarked) [Compound 275, 1-{2-[4-(2-{6-Amino-4-[(2,6-dioxopiperidin-3-yl)carbamoyl]-2-methyl-1H-1,3-benzodiazol-1-yl}acetyl)piperazin-1-yl]ethyl}-6-chloro-3-{3-[(6-fluoronaphthalen-1-yl)oxy]propyl}-7-(1,3,5-trimethyl-1H-pyrazol-4-yl)-1H-indole-2-carboxylic acid], for which, in assay [2], the EC50 was less than 0.1 µM. In addition, the IC50 in the assay with DMS 114 cells was not above 3.16 µM; in the assay on ARH-77 cells, more than 10 µM; in the assay on MV-4-11 cells, not above 0.1 µM.
`Cc1nn(C)c(C)c1-c1c(Cl)ccc2c(CCCOc3cccc4cc(F)ccc34)c(C(=O)O)n(CCN3CCN(C4CCN(c5cc6c(cc5F)C(=O)N(C5CCC(=O)NC5=O)C6=O)CC4)CC3)c12` (centres unmarked) [Compound 338, 6-Chloro-1-[2-(4-{1-[2-(2,6-dioxopiperidin-3-yl)-6-fluoro-1,3-dioxo-2,3-dihydro-1H-isoindol-5-yl]piperidin-4-yl}piperazin-1-yl)ethyl]-3-{3-[(6-fluoronaphthalen-1-yl)oxy]propyl}-7-(1,3,5-trimethyl-1H-pyrazol-4-yl)-1H-indole-2-carboxylic acid]: the IC50 in the assay on DMS 114 cells is not above 10 µM; in the assay on ARH-77 cells, more than 10 µM; with MV-4-11 cells it was not above 0.0316 µM. Besides, the EC50 in assay [1] is less than 0.01 µM.
With `Cc1nn(C)c(C)c1-c1c(Cl)ccc2c(CCCOc3cccc4cc(F)ccc34)c(C(=O)O)n(CCN3CCN(C(=O)COc4c(F)ccc5c4CN(C4CCC(=O)NC4=O)C5=O)CC3)c12` (centres unmarked) [Compound 342, 6-Chloro-1-(2-(4-(2-((2-(2,6-dioxopiperidin-3-yl)-5-fluoro-1-oxoisoindolin-4-yl)oxy)acetyl)piperazin-1-yl)ethyl)-3-(3-((6-fluoronaphthalen-1-yl)oxy)propyl)-7-(1,3,5-trimethyl-1H-pyrazol-4-yl)-1H-indole-2-carboxylic acid], the EC50 in assay [2] was less than 0.1 µM. The IC50 is not above 1 µM in the assay with DMS 114 cells, more than 10 µM in the assay on ARH-77 cells and not above 0.0316 µM in the assay on MV-4-11 cells.
On the same counts, the results for `Cc1nn(C)c(C)c1-c1c(Cl)ccc2c(CCCOc3cccc4cc(F)ccc34)c(C(=O)O)n(CCN3CCN(C(=O)Cn4c(C)nc5c(C(=O)NC6CCC(=O)NC6=O)cc(F)cc54)CC3)c12` (centres unmarked) [Compound 278, 6-Chloro-1-{2-[4-(2-{4-[(2,6-dioxopiperidin-3-yl)carbamoyl]-6-fluoro-2-methyl-1H-1,3-benzodiazol-1-yl}acetyl)piperazin-1-yl]ethyl}-3-{3-[(6-fluoronaphthalen-1-yl)oxy]propyl}-7-(1,3,5-trimethyl-1H-pyrazol-4-yl)-1H-indole-2-carboxylic acid] are less than 0.1 µM, not above 3.16 µM, more than 10 µM and not above 0.1 µM.
Take `Cc1nn(C)c(C)c1-c1c(Cl)ccc2c(CCCOc3cccc4cc(F)ccc34)c(C(=O)O)n(CCN3CCN(C(=O)[C@H](C)Oc4cccc5c4C(=O)N([C@H]4CCC(=O)NC4=O)C5=O)CC3)c12` (single isomer, unassigned) [Compound 319]: the EC50 in assay [2] is less than 0.1 µM. For the same compound, the IC50 in the assay with DMS 114 cells was not above 3.16 µM; in the assay with ARH-77 cells it was more than 10 µM; with MV-4-11 cells, not above 0.0316 µM.
As to `Cc1nn(C)c(C)c1-c1c(Cl)ccc2c(CCCOc3cccc4cc(F)ccc34)c(C(=O)O)n(CC[N+]3([O-])CCN(C(=O)COc4cccc5c4CN(C4CCC(=O)NC4=O)C5=O)CC3)c12` (centres unmarked) [Compound 298, 1-(2-(2-Carboxy-6-chloro-3-(3-((6-fluoronaphthalen-1-yl)oxy)propyl)-7-(1,3,5-trimethyl-1H-pyrazol-4-yl)-1H-indol-1-yl)ethyl)-4-(2-((2-(2,6-dioxopiperidin-3-yl)-1-oxoisoindolin-4-yl)oxy)acetyl)piperazine 1-oxide], the EC50 in assay [2] is less than 0.01 µM. The IC50 with DMS 114 cells is not above 1 µM; with ARH-77 cells, more than 10 µM; with MV-4-11 cells, not above 0.1 µM.
Turning to `COc1cc(C(=O)NC2CCC(=O)NC2=O)c2nc(C)n(CC(=O)N3CCN(CCn4c(C(=O)O)c(CCCOc5cccc6cc(F)ccc56)c5ccc(Cl)c(-c6c(C)nn(C)c6C)c54)CC3)c2c1` (centres unmarked) [Compound 277, 6-Chloro-1-{2-[4-(2-{4-[(2,6-dioxopiperidin-3-yl)carbamoyl]-6-methoxy-2-methyl-1H-1,3-benzodiazol-1-yl}acetyl)piperazin-1-yl]ethyl}-3-{3-[(6-fluoronaphthalen-1-yl)oxy]propyl}-7-(1,3,5-trimethyl-1H-pyrazol-4-yl)-1H-indole-2-carboxylic acid], in assay [2], the EC50 is less than 0.1 µM. Besides, the IC50 with DMS 114 cells is not above 3.16 µM; with ARH-77 cells, more than 10 µM; in the assay on MV-4-11 cells, not above 0.1 µM.
For the compound `Cc1nn(C)c(C)c1-c1c(Cl)ccc2c(CCCOc3cccc4cc(F)ccc34)c(C(=O)O)n(CCN3CCN(C(=O)COc4cccc5c4CN(C4CCC(=O)NC4=O)C5=O)CC3)c12` (atropisomer, axis not shown; (Ra)) [Compound 294, (Ra)-6-Chloro-1-(2-(4-(2-((2-(2,6-dioxopiperidin-3-yl)-1-oxoisoindolin-4-yl)oxy)acetyl)piperazin-1-yl)ethyl)-3-(3-((6-fluoronaphthalen-1-yl)oxy)propyl)-7-(1,3,5-trimethyl-1H-pyrazol-4-yl)-1H-indole-2-carboxylic acid], the “AlphaLISA dose response Average pEC50 by molecule” value in assay [2] is more than 7. Besides, the “Average pIC50 by molecule DMS 114” value with DMS 114 cells is recorded as not below 6.0. Further, the “Average pIC50 by molecule ARH-77” value in the assay with ARH-77 cells (24 hours incubation) is on record as less than 5.0. Further, in the assay on MV-4-11 cells (24 hours incubation), the “Average pIC50 by molecule MV-4-11” value is reported as not below 7.5.
